{
  "source": "patent US20050090522A1",
  "about": "(priority 2001, published 2005)",
  "data": [
    {"test_system": "HIV-1", "experiment": "HIV-1 single-round infectious luciferase reporter virus (pseudotype) assay in HeLa CD4 CCR5 cells", "type": "cell-based", "settings": "Human immunodeficiency virus 1, HeLa-CD4/CCR5, read-out: EC50 Group from TABLE 1, HeLa CD4 CCR5 cells, single-round infectious luciferase reporter virus", "method_in_brief": "(§1)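 HeLa CD4 CCR5 cells (5×10^4/well, DMEM + 10% FBS) were treated with compound (final <10 μM) and infected with single-round luciferase reporter virus made in 293 cells, at MOI ~0.01. Luciferase was read 72 h post infection. EC50 came from 10-concentration percent-inhibition curves fitted to a four-parameter logistic model.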", "units": {"EC50": "nM"}, "values": [
      {"smiles": "CNCc1ccn(-c2ncc(OC)c3c(C(=O)C(=O)N4CCN(C(=O)c5ccccc5)CC4)c[nH]c23)n1", "note": "[Example 283, 1-benzoyl-4-[(4-methoxy-7-(3-methylaminomethyl-pyrazol-1-yl)-6-azaindol-3-yl)-oxoacetyl]piperazine]", "EC50": "< 1000"},
      {"smiles": "COc1cnc(-c2cnc(-c3nccs3)s2)c2[nH]cc(C(=O)C(=O)N3CCN(C(=O)c4ccccc4)CC3)c12", "note": "[Example 92, 1-benzoyl-4-[(4-methoxy-7-(2-(thiazol-2-yl)-thiazol-5-yl)-6-azaindol-3-yl)-oxoacetyl]piperazine]", "EC50": "< 1000"},
      {"smiles": "C[C@@H]1CN(C(=O)c2ccccc2)CCN1C(=O)C(=O)c1c[nH]c2c(-c3cncc(NC(=O)C4OC4C(=O)O)n3)nccc12", "note": "(stereo in doubt) [Example 296, 3-(6-{3-[2-(4-Benzoyl-2-methyl-piperazin-1-yl)-2-oxo-acetyl]-1H-pyrrolo[2,3-c]pyridin-7-yl}-pyrazin-2-ylcarbamoyl)-oxirane-2-carboxylic acid]", "EC50": "< 1000"},
      {"smiles": "COc1cnc(-c2cnc(N)nc2)c2[nH]cc(C(=O)C(=O)N3CCN(C(=O)c4ccccc4)CC3)c12", "note": "[Example 24]", "EC50": "< 1000"},
      {"smiles": "COc1nc(-c2ncc(OC)c3c(C(=O)C(=O)N4CCN(C(=O)c5ccccc5)CC4)c[nH]c23)cnc1N", "note": "[Example 101, 1-benzoyl-4-[(4-methoxy-7-(2-amino-3-methoxy-pyrazin-5-yl)-6-azaindol-3-yl)-oxoacetyl]piperazine]", "EC50": "< 1000"},
      {"smiles": "O=C(C(=O)N1CCN(C(=O)c2ccccc2)CC1)c1c[nH]c2c(-c3c[nH]c(=O)cn3)ncc(Cl)c12", "note": "[Example 149]", "EC50": "< 1000"},
      {"smiles": "C[C@@H]1CN(C(=O)c2ccccc2)CCN1C(=O)C(=O)c1c[nH]c2c(-c3ccc(N)cn3)nccc12", "note": "[Example 114, (R)-1-benzoyl-3-methyl-4-[(7-(5-amino-pyridin-2-yl)-6-azaindol-3-yl)-oxoacetyl]piperazine]", "EC50": "< 1000"},
      {"smiles": "C[C@@H]1CN(C(=O)c2ccccc2)CCN1C(=O)C(=O)c1c[nH]c2c(-c3cccc(N)n3)nccc12", "note": "[Example 112, (R)-1-benzoyl-3-methyl-4-[(7-(2-amino-pyridin-6-yl)-6-azaindol-3-yl)-oxoacetyl]piperazine]", "EC50": "< 1000"},
      {"smiles": "O=C(C(=O)N1CCN(C(=O)c2ccccc2)CC1)c1c[nH]c2c(-n3cncn3)ncc(F)c12", "note": "[Example 215]", "EC50": "< 1000"},
      {"smiles": "COc1cnc(-c2cccs2)c2[nH]cc(C(=O)C(=O)N3CCN(C(=O)c4ccccc4)CC3)c12", "note": "[Example 82, 1-benzoyl-4-[(4-methoxy-7-(thiophen-2-yl)-6-azaindol-3-yl)-oxoacetyl]piperazine]", "EC50": "< 1000"},
      {"smiles": "C[C@@H]1CN(C(=O)c2ccccc2)CCN1C(=O)C(=O)c1c[nH]c2c(-c3cncnc3)nccc12", "note": "[Example 16, 1-benzoyl-3-(R)-methyl-4-[(7-(pyrimidin-5-yl)-6-azaindol-3-yl)-oxoacetyl]piperazine]", "EC50": "< 1000"},
      {"smiles": "COc1cnc(-c2cnccn2)c2[nH]cc(C(=O)C(=O)N3CCN(C(=O)c4csnn4)CC3)c12", "note": "[Example 197]", "EC50": "< 1000"},
      {"smiles": "COc1cnc(Nc2ccccn2)c2[nH]cc(C(=O)C(=O)N3CCN(C(=O)c4ccccc4)CC3)c12", "note": "[Example 330]", "EC50": "< 1000"},
      {"smiles": "C[C@@H]1CN(C(=O)c2ccccn2)CCN1C(=O)C(=O)c1c[nH]c2c(-c3cncs3)nccc12", "note": "[Example 109, (R)-1-picolinoyl-3-methyl-4-[(7-(thiazol-5-yl)-6-azaindol-3-yl)-oxoacetyl]piperazine]", "EC50": "< 1000"},
      {"smiles": "CCOC(=O)c1cc(-c2ncc(F)c3c(C(=O)C(=O)N4CCN(C(=O)c5ccccc5)CC4)c[nH]c23)n[nH]1", "note": "[Example 209]", "EC50": "< 1000"},
      {"smiles": "COc1cnc(-c2cnc(N)cn2)c2[nH]cc(C(=O)C(=O)N3CCN(C(=O)c4ccccc4)CC3)c12", "note": "[Example 26]", "EC50": "< 1000"},
      {"smiles": "C[C@@H]1CN(C(=O)c2ccccc2)CCN1C(=O)C(=O)c1c[nH]c2c(-c3cccs3)nccc12", "note": "[Example 9, 1-(benzoyl)-3-®-methyl-4-[(7-(thien-2-yl)-6-azaindol-3-yl)-oxoacetyl]piperazine]", "EC50": "< 1000"},
      {"smiles": "C[C@@H]1CN(C(=O)c2ccccc2)CCN1C(=O)C(=O)c1c[nH]c2c(-c3cccc(O)n3)nccc12", "note": "[Example 123]", "EC50": "< 1000"},
      {"smiles": "CNc1cnc(-c2ncc(OC)c3c(C(=O)C(=O)N4CCN(C(=O)c5ccccc5)CC4)c[nH]c23)cn1", "note": "[Example 115, 1-benzoyl-4-[(4-methoxy-7-(2-methylamino-pyrazin-5-yl)-6-azaindol-3-yl)-oxoacetyl]piperazine]", "EC50": "< 1000"},
      {"smiles": "COc1cnc(-n2ccc(C(F)(F)F)n2)c2[nH]cc(C(=O)C(=O)N3CCN(C(=O)c4ccccc4)CC3)c12", "note": "[Example 192, 1-benzoyl-4-[(4-methoxy-7-(3-trifluoromethylpyrazol-1-yl)-6-azaindol-3-yl)-oxoacetyl]piperazine]", "EC50": "< 1000"},
      {"smiles": "O=C(C(=O)N1CCN(C(=O)c2ccccc2)CC1)c1c[nH]c2c(-c3cncnc3)ncc(Cl)c12", "note": "[Example 144]", "EC50": "< 1000"},
      {"smiles": "COc1cnc(-c2cnccn2)c2[nH]cc(C(=O)C(=O)N3CCN(C(=O)c4cccc(C)n4)CC3)c12", "note": "[Example 201]", "EC50": "< 1000"},
      {"smiles": "O=C(C(=O)N1CCN(C(=O)c2ccccc2)CC1)c1c[nH]c2c(-c3cncnc3)nccc12", "note": "[Example 17, 1-benzoyl-4-[(7-(pyrimidin-5-yl)-6-azaindol-3-yl)-oxoacetyl]piperazine]", "EC50": "< 1000"},
      {"smiles": "CCOc1ncc(-c2ncc(OC)c3c(C(=O)C(=O)N4CCN(C(=O)c5ccccc5)CC4)c[nH]c23)s1", "note": "[Example 45, 1-benzoyl-4-[(4-methoxy-7-(2-ethoxy-thiazol-5-yl)-6-azaindol-3-yl)-oxoacetyl]piperazine]", "EC50": "< 1000"},
      {"smiles": "C[C@@H]1CN(C(=O)c2ccccc2)CCN1C(=O)C(=O)c1c[nH]c2c(-c3cncc(O)n3)nccc12", "note": "[Example 121]", "EC50": "< 1000"},
      {"smiles": "CCCSc1ncn(-c2ncc(OC)c3c(C(=O)C(=O)N4CCN(C(=O)c5ccccc5)CC4)c[nH]c23)n1", "note": "[Example 289, 1-benzoyl-4-[(4-methoxy-7-(3-propylsulfanyl-[1,2,4]triazol-1-yl)-6-azaindol-3-yl)-oxoacetyl]piperazine]", "EC50": "< 1000"},
      {"smiles": "O=C(NCCN1CCOCC1)c1cc(-c2ncc(F)c3c(C(=O)C(=O)N4CCN(C(=O)c5ccccc5)CC4)c[nH]c23)n[nH]1", "note": "[Example 213]", "EC50": "< 1000"},
      {"smiles": "CCCS(=O)(=O)c1ncn(-c2ncc(OC)c3c(C(=O)C(=O)N4CCN(C(=O)c5ccccc5)CC4)c[nH]c23)n1", "note": "[Example 290, 1-benzoyl-4-[(4-methoxy-7-(3-(propane-1-sulfonyl)-[1,2,4]triazol-1-yl)-6-azaindol-3-yl)-oxoacetyl]piperazine]", "EC50": "< 1000"},
      {"smiles": "CCc1ncc(-c2ncc(OC)c3c(C(=O)C(=O)N4CCN(C(=O)c5ccccc5)CC4)c[nH]c23)s1", "note": "[Example 88, 1-benzoyl-4-[(4-methoxy-7-(2-ethyl-thiazol-5-yl)-6-azaindol-3-yl)-oxoacetyl]piperazine]", "EC50": "< 1000"},
      {"smiles": "C[C@H]1CN(C(=O)c2ccccn2)CCN1C(=O)C(=O)c1c[nH]c2c(-c3cc4ccccc4o3)nccc12", "note": "[Example 108, (S)-1-picolinoyl-3-methyl-4-[(7-(benzofuran-2-yl)-6-azaindol-3-yl)-oxoacetyl]piperazine]", "EC50": "< 1000"},
      {"smiles": "COc1cnc(-n2ccc(C3(O)CCCC3)n2)c2[nH]cc(C(=O)C(=O)N3CCN(C(=O)c4ccccc4)CC3)c12", "note": "[Example 282, 1-benzoyl-4-[(4-methoxy-7-(3-(1-hydroxy-cyclopentyl)-pyrazol-1-yl)-6-azaindol-3-yl)-oxoacetyl]piperazine]", "EC50": "< 1000"},
      {"smiles": "O=C(C(=O)N1CCN(C(=O)c2ccccc2)CC1)c1c[nH]c2c(-n3ccnc3)ncc(F)c12", "note": "[Example 218]", "EC50": "< 1000"},
      {"smiles": "CCCOC(=O)N1CCN(C(=O)C(=O)c2c[nH]c3c(-c4cnccn4)ncc(OC)c23)CC1", "note": "[Example 199]", "EC50": "< 1000"}
    ]},
    {"test_system": "HIV-1", "experiment": "HIV-1 single-round infectious luciferase reporter virus (pseudotype) assay in HeLa CD4 CCR5 cells", "type": "cell-based", "settings": "Human immunodeficiency virus 1, HeLa-CD4/CCR5, read-out: EC50 Group from Table 1, Table 2-1; HeLa CD4 CCR5 cells, single-round luciferase reporter virus", "method_in_brief": "as §1", "units": {"EC50": "nM"}, "values": [
      {"smiles": "COc1cnc(-n2ccc(C(C)=O)n2)c2[nH]cc(C(=O)C(=O)N3CCN(C(=O)c4ccccc4)[C@H](C)C3)c12", "note": "[Example 259, (R)-1-benzoyl-2-methyl-4-[(4-methoxy-7-(3-methylcarbonyl-pyrazol-1-yl)-6-azaindol-3-yl)-oxoacetyl]piperazine]", "EC50": "< 1000"},
      {"smiles": "COc1cnc(-n2ccc(O)n2)c2[nH]cc(C(=O)C(=O)N3CCN(C(=O)c4ccccc4)[C@H](C)C3)c12", "note": "[Example 257, (R)-1-benzoyl-2-methyl-4-[(4-methoxy-7-(3-hydroxylpyrazol-1-yl)-6-azaindol-3-yl)-oxoacetyl]piperazine]", "EC50": "< 1000"},
      {"smiles": "CCc1n[nH]c(-c2ncc(OC)c3c(C(=O)C(=O)N4CCN(C(=O)c5ccccc5)[C@H](C)C4)c[nH]c23)n1", "note": "[Example 336]", "EC50": "< 1000"},
      {"smiles": "CCOc1ccn(-c2ncc(OC)c3c(C(=O)C(=O)N4CCN(C(=O)c5ccccc5)[C@H](C)C4)c[nH]c23)n1", "note": "[Example 233, (R)-1-benzoyl-2-methyl-4-[(4-methoxy-7-(3-ethoxy-pyrazol-1-yl)-6-azaindol-3-yl)-oxoacetyl]piperazine]", "EC50": "< 1000"}
    ]},
    {"test_system": "HIV-1", "experiment": "HIV-1 single-round infectious luciferase reporter virus (pseudotype) assay in HeLa CD4 CCR5 cells", "type": "cell-based", "settings": "Human immunodeficiency virus 1, HeLa-CD4/CCR5, read-out: EC50 Group from Table 1, Table 4; HeLa CD4 CCR5 cells, single-round luciferase reporter virus", "method_in_brief": "as §1", "units": {"EC50": "nM"}, "values": [
      {"smiles": "O=Cc1ccc(-c2ccnc3c(C(=O)C(=O)N4CCN(C(=O)c5ccccc5)CC4)c[nH]c23)s1", "note": "[Example 133]", "EC50": "< 1000"},
      {"smiles": "C[C@@H]1CN(C(=O)c2ccccc2)CCN1C(=O)C(=O)c1c[nH]c2c(C(=O)c3cccs3)ccnc12", "note": "[Example 168, 1-benzoyl-3-(R)-methyl-4-[(7-(2-thienylcarbonyl)-4-azaindol-3-yl)-oxoacetyl]piperazine]", "EC50": "< 1000"},
      {"smiles": "O=C(C(=O)N1CCN(C(=O)c2ccccc2)CC1)c1c[nH]c2c(-c3cc4ccccc4o3)ccnc12", "note": "[Example 203, 1-(7-benzofuran-2-yl-1H-pyrrolo[3,2-b]pyridin-3-yl)-2-(4-benzoyl-piperazin-1-yl)-ethane-1,2-dione]", "EC50": "< 1000"},
      {"smiles": "COc1ccc(-c2ccnc3c(C(=O)C(=O)N4CCN(C(=O)c5ccccc5)CC4)c[nH]c23)cc1", "note": "[Example 65, 1-(benzoyl)-4-[(7-(4-methoxy)-4-azaindol-3-yl)-oxoacetyl]piperazine]", "EC50": "< 1000"}
    ]}
  ]
}
